In PubChem BioAssay (NCI) one finds GI50 and TGI data, which are given here for ten compounds.

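Protocol summary: plate cells (96-well), add compound at 5 concentrations, incubate 48 h, interpolate endpoints linearly. GI50 marks 50% less growth. TGI marks complete inhibition of growth.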

Test systems include M14 melanoma; CCRF-CEM leukemia; EKVX NSCLC; RPMI-8226 leukemia; HS 578T breast; UACC-257 melanoma; SK-OV-3 ovarian; KM12 colon; SK-MEL-5 melanoma; OVCAR-5 ovarian.
Holding throughout (assay): NCI tumour cell line growth inhibition, 48 h

As for `CC1=C(C)C2(O)C(=C(C)C1=O)/C(=C(/O)c1ccccc1)c1nc3ccccc3n12` (stereo not drawn), the GI50 in the test on M14 melanoma was 23.5 µM; in the test on CCRF-CEM leukemia, 12.2 µM; in the test on EKVX NSCLC it was 24.5 µM; in the test on RPMI-8226 leukemia it was 13.2 µM; in the test on HS 578T breast, 29.3 µM; in the test on UACC-257 melanoma it was 16.5 µM. For the same compound, the GI50 in the test on SK-OV-3 ovarian is 18.2 µM; in the test on KM12 colon, 17.6 µM; with SK-MEL-5 melanoma, 16.6 µM. Further, the TGI with M14 melanoma was 52.7 µM; in the test on CCRF-CEM leukemia it was 38.5 µM; in the test on EKVX NSCLC it was 60.4 µM; with RPMI-8226 leukemia, 33.2 µM; in the test with HS 578T breast it was 94.6 µM; in the test on UACC-257 melanoma it was 33.4 µM. Further, the figures for the TGI with SK-OV-3 ovarian, with KM12 colon and with SK-MEL-5 melanoma were 42.2 µM, 37.6 µM and 31.3 µM, respectively.

As for `O=C1c2ccccc2C(=O)c2c(NCC3CO3)ccc(NCC3CO3)c21` (stereo not drawn), the TGI was 2.57 µM in the test on M14 melanoma; above 65.8 µM with OVCAR-5 ovarian; above 51.5 µM in the test on EKVX NSCLC; 33.3 µM in the test with RPMI-8226 leukemia; 15.3 µM with HS 578T breast; 23.9 µM in the test on UACC-257 melanoma. In addition, the TGI in the test on SK-OV-3 ovarian was above 47 µM; with KM12 colon, 19.4 µM; with SK-MEL-5 melanoma, 6.44 µM.

As for `Cc1cc(Nc2cc(N3CCN(C)CC3)nc(Sc3ccc(NC(=O)C4CC4)cc3)n2)n[nH]1`, the GI50 in the test on M14 melanoma is 1.48 µM; with CCRF-CEM leukemia, 0.00613 µM; with EKVX NSCLC, above 10 µM; in the test on RPMI-8226 leukemia it was 4.02 µM; in the test on HS 578T breast it was 3.46 µM; in the test with UACC-257 melanoma it was 3.52 µM. Further, the GI50 with SK-OV-3 ovarian was above 10 µM; in the test on KM12 colon it was 0.0461 µM; in the test with SK-MEL-5 melanoma it was 3.19 µM. The TGI in the test with M14 melanoma, in the test with CCRF-CEM leukemia, with EKVX NSCLC, in the test with RPMI-8226 leukemia, in the test with HS 578T breast and in the test on UACC-257 melanoma was above 10 µM in each case. Besides, the TGI in the test with SK-OV-3 ovarian, with KM12 colon and in the test on SK-MEL-5 melanoma was above 10 µM each time.

For `COc1cc(C2C3=C(COC3=O)N(CCO)c3cc4c(cc32)OCO4)cc(OC)c1O` (stereo not drawn), the GI50 was 1.49 µM in the test with M14 melanoma; 23.1 µM in the test on OVCAR-5 ovarian; 1.51 µM in the test on CCRF-CEM leukemia; 4.36 µM in the test on EKVX NSCLC; 1.57 µM in the test with RPMI-8226 leukemia; 1.3 µM with HS 578T breast. Also, the GI50 in the test with SK-OV-3 ovarian was 2.03 µM; with KM12 colon, 1.35 µM; with SK-MEL-5 melanoma, 0.832 µM. The TGI was 7.64 µM with M14 melanoma; above 50 µM in the test on OVCAR-5 ovarian; above 50 µM in the test with CCRF-CEM leukemia; above 50 µM with EKVX NSCLC; above 50 µM with RPMI-8226 leukemia; 4.59 µM in the test with HS 578T breast. In addition, the TGI is above 26.7 µM with SK-OV-3 ovarian, above 20.6 µM in the test with KM12 colon and 3.42 µM in the test with SK-MEL-5 melanoma.

`Clc1ccccc1C(Nc1ncccn1)Nc1ncccn1`: the TGI in the test with M14 melanoma, in the test with OVCAR-5 ovarian, in the test with EKVX NSCLC, in the test with RPMI-8226 leukemia, in the test with HS 578T breast and in the test on UACC-257 melanoma was above 100 µM each time. The TGI in the test on SK-OV-3 ovarian, in the test on KM12 colon and with SK-MEL-5 melanoma was above 100 µM throughout.

In the case of `c1ccc([As]=[As]c2ccccc2)cc1` (stereo not drawn), the GI50 was 1.55 µM in the test with M14 melanoma; 1.5 µM in the test on OVCAR-5 ovarian; 0.234 µM with CCRF-CEM leukemia; 0.543 µM in the test with RPMI-8226 leukemia; 1.55 µM with HS 578T breast; 1.28 µM in the test on UACC-257 melanoma. The GI50 was 1.82 µM in the test with SK-OV-3 ovarian, 1.87 µM in the test with KM12 colon and 1.41 µM with SK-MEL-5 melanoma. The TGI in the test on M14 melanoma is 4.17 µM; in the test on OVCAR-5 ovarian, 3.07 µM; with CCRF-CEM leukemia, 1.62 µM; in the test with RPMI-8226 leukemia, 2.97 µM; in the test with HS 578T breast, 10.5 µM; in the test with UACC-257 melanoma, 2.88 µM. Also, the figures for the TGI in the test with SK-OV-3 ovarian, in the test with KM12 colon and in the test with SK-MEL-5 melanoma were 3.48 µM, 3.69 µM and 3.57 µM, respectively.

For the compound `CC12CCC3c4cc(Br)c(O)c(Br)c4CCC3C1CCC2O` (stereo not drawn), the TGI in the test with M14 melanoma is above 100 µM; in the test with OVCAR-5 ovarian, above 100 µM; with CCRF-CEM leukemia it was 75.8 µM; with EKVX NSCLC, 45.4 µM; with HS 578T breast, 49.4 µM; in the test on UACC-257 melanoma it was 35.8 µM. The TGI amounted to 51.4 µM in the test with SK-OV-3 ovarian and 26.6 µM in the test with KM12 colon.

As for `NNC(=O)c1ccc(OCc2nc3ccccc3[nH]2)cc1`, the TGI with M14 melanoma, in the test with OVCAR-5 ovarian, with EKVX NSCLC, in the test with RPMI-8226 leukemia, with HS 578T breast and in the test with UACC-257 melanoma was above 100 µM in each case. In addition, the TGI in the test with SK-OV-3 ovarian, in the test on KM12 colon and in the test on SK-MEL-5 melanoma was above 100 µM each time.

In the case of `COc1ccc(N(/C=C/C(=O)C(F)(F)F)CC(=O)c2ccc(Cl)cc2)cc1`, the GI50 in the test with OVCAR-5 ovarian is 18.5 µM; in the test on CCRF-CEM leukemia it was 12.2 µM; in the test on EKVX NSCLC, 25.3 µM; with RPMI-8226 leukemia, 13.4 µM; in the test with HS 578T breast it was 25 µM; in the test on UACC-257 melanoma, 18.4 µM. In addition, the GI50 with SK-OV-3 ovarian was 19.2 µM; with KM12 colon, 11.7 µM; in the test with SK-MEL-5 melanoma, 15 µM. Also, the TGI with OVCAR-5 ovarian was 38.5 µM; with CCRF-CEM leukemia, 38.1 µM; in the test on EKVX NSCLC, 63.3 µM; with RPMI-8226 leukemia it was 44.7 µM; in the test on HS 578T breast, 67.3 µM; in the test with UACC-257 melanoma it was 37.7 µM. The TGI in the test on SK-OV-3 ovarian came to 36.4 µM; in the test with KM12 colon, 32.8 µM; in the test with SK-MEL-5 melanoma, 29.5 µM.

Take `COc1ccc(Nc2nc3cc(N)cc(N)c3nc2-c2ccccc2)cc1OC`: the GI50 was 21 µM with M14 melanoma; 29.7 µM in the test on OVCAR-5 ovarian; 25.6 µM in the test with EKVX NSCLC; 7.95 µM in the test on RPMI-8226 leukemia; 18.5 µM in the test on HS 578T breast; 35.6 µM in the test on UACC-257 melanoma. Besides, the results for the GI50 in the test with SK-OV-3 ovarian, in the test with KM12 colon and in the test with SK-MEL-5 melanoma were 38.2 µM, 14.8 µM and 12.2 µM, respectively. Besides, the TGI is 69.8 µM in the test on M14 melanoma; 72.7 µM in the test on OVCAR-5 ovarian; 71.1 µM in the test on EKVX NSCLC; 28.3 µM with RPMI-8226 leukemia; 50.2 µM in the test on HS 578T breast; above 100 µM in the test with UACC-257 melanoma. For the same compound, the TGI in the test with SK-OV-3 ovarian amounted to 87.5 µM; in the test with KM12 colon, 32 µM; with SK-MEL-5 melanoma it was 25.5 µM.
